Results reported in patent publication EP2386565A2, “Compounds and methods to inhibit or augment an inflammatory response” (Cambridge Enterprise Ltd., priority 1999, dated 2000).
Positions of bridges follow the written chain, without caps; N, C: chain ends. Non-standard residues stand in square brackets, D forms with d. Residues, ends and D or L forms follow the SMILES beside them.

What was measured:
α2-adrenoceptors = assay: Competition of 3H-RS-79948-197 binding to membranes; conditions: 100 µM highest concentration tested
Protocol: For α2-adrenoreceptor binding, membranes (A-213, RBI/Sigma)) are diluted into binding buffer (75 mM Tris pH 7.4, 12.5 mM MgCl2 and 2 mM EDTA). For example, 10 µl of membranes are diluted in 500 µl of binding buffer (i.e., 1:50 dilution), which is aliquoted into tubes. Cold competitor or test competitor is added, for example, 5 µl of 1 mM oxymetazoline (O-110, RBI/Sigma, 1 mM stock in MilliQ water). Radioligand is then added (^3H-RS-79948-197, TRK 1036, Amersham, 50 µCi in 250 µl, 2.1 µM at 95 Ci/mmol). For competition studies, 1 nM is used. A 100x stock (i.e., 100 nM) is made by diluting the commercial stock 1:20 in binding buffer, and 5 µl is added to every tube. Control tubes have radioligand but no membranes. The mixtures are vortexed, then spun very briefly. The mixtures are then incubated for 1 hour at 27°C in a water bath. The mixture is filtered through GF/C filters over a vacuum. Each filter is pre-soaked in polyethyleneimine (0.3% in water; add 1 ml of 10% stock (P-261; RBI/Sigma) to 33 ml of MilliQ water). The tubes are washed with 2-3 ml of wash buffer (50 mM Tris pH 7.4) and the wash filtered. The filters are then rinsed with 3 × 5 ml of wash buffer, air dried, placed in a scintillation vial and 4.5 ml of scintillant added. The activity on the filter is then determined.

[1] = test system: T cell-dependent and T cell-independent antibody response; assay: Antibody response after immunization with sheep red blood cells; parameters: species or system mice; conditions: mouse, in vivo
[2] = test system: antigen specific antibody recall response; assay: Antigen (scFv) recall response, safety and serum levels after single i.v. dose; type: in vivo, Cynomolgus monkeys
Protocol: Cynomolgus monkeys were immunized with antigen that is a single chain Fv (scFv) protein. Each animal previously received 3 i.v. injections of the antigen and all developed high serum titers. Five animals were randomly divided into 2 groups. Two animals served as PBS treated controls and 3 were treated i.v. with 50 mg/kg CRD-Leu4Ile11Cys13 peptide 3(3-12)[MCP-1]. Thirty minutes following CRD-Leu4Ile11Cys13 peptide 3(3-12)[MCP-1] treatment all animals were challenged i.v. with 3.5 mg/kg antigen. In addition, animals were challenged intradermal with each of the following in a volume of 50 µl:PBS; 50 µg antigen; 5 µg antigen; 0.5 µg antigen; 500 ng MCP-1; or 50 ng LPS. Serum was collected at 10 minutes, 30 minutes, 60 minutes, 4 hours, and 24 hours. Animals were sacrificed 24 hours after CRD-Leu4Ile11Cys13peptide 3(3-12)[MCP-1] injection and complete necropsy performed and tissues fixed for histopathology. Fixed and frozen skin samples were harvested for histopathology and immunohistochemistry. Blood, spleen, and lymph node were harvested for assessment of cell function in migration assay, proliferation assay, and antigen specific antibody and cytokine recall. Blood was also analyzed pre- and post-CRD-Leu4Ile11Cys13 peptide 3(3-12)[MCP-1] injection for hematology parameters and serum chemistry. Serum levels were evaluated by an LC-MS method (limit of quantitation = 1 µg/ml) pre-treatment and then at 10 minutes, 30 minutes, 60 minutes, 4 hours and 20-24 hours after injection. Urinalysis was performed pre- and post-CRD-Leu4Ile11Cys13 peptide 3(3-12)[MCP-1] injection.

Modified LD50 technique = type: in vivo, mouse; conditions: 11 mg i.p.
[3] = 8.8 mg i.v. bolus
[4] = test system: IL8 induced human monocyte migration; assay: Migration of freshly prepared peripheral blood monocytes, IL8; type: cell-based
Protocol: (§1) Agents may also be screened in a chemotactic assay which employs human neutrophils, eosinophils, mast cells, basophils, platelets, lymphocytes or monocytes. For monocytes, 9 mls of fresh blood are transferred to a tube containing 1 ml of 3.8% sodium citrate, and left at room temperature for 15 minutes. Five mls of this anti-coagulated blood are carefully layered over 3.5 ml Polymorphprep® (Nycomed Pharma, Oslo), and centrifuged at 500 g for 35 minutes per the manufacturer's instructions. The top band at the sample/medium interface contains monocytes. The monocytes are carefully removed with a glass pipette, and reconstituted to the original volume (5 ml). The cells are washed with PBS plus 10% fetal calf serum, and centrifuged at 400 g for 10 minutes. The washing step is repeated three times before the cells are counted. Cells are resuspended at 1 × 10^7 cells/ml in RPMI-1640 + 10% fetal calf serum (FCS). The monocytes are cultured for two days at 37°C in a humidified atmosphere of 5% CO2-
(§2) On day 2, the cells are counted, spun down, and reconstituted to 1 × 10^7 cells/ml in Gey's balanced salt solution + 1 mg/ml bovine serum albumin (BSA). […]

[5] = test system: TGFβ1 induced human monocyte migration; assay: Migration of freshly prepared peripheral blood monocytes, TGFβ1; type: cell-based
Protocol: as §1, §2

[6] = test system: MCP-1 induced human monocyte migration; assay: Migration of freshly prepared peripheral blood monocytes, MCP-1; type: cell-based
Protocol: as §1, §2

Row | Compound | ED50 for competition of RS79943 binding to α2-adrenoceptors (α2-adrenoceptors) [µM] | T cell-dependent antibody response (in words) [1] | hematology and serum chemistry (in words) ([2]; 50 mg/kg i.v.) | period with detectable drug levels in serum after treatment ([2]; 50 mg/kg i.v.) [h] | antigen specific antibody in recall responses of splenocytes, lymph node cells and PBL (in words) ([2]; single i.v. dose 50 mg/kg) | lethality after intraperitoneal administration (in words) (Modified LD50 technique) | time until serum concentrations decline below LLOQ (in words) [3] | % inhibition at 100 µM versus IL8 [4] | % inhibition at 100 µM versus TGFβ1 [5] | % inhibition at 100 µM versus MCP-1 [6]
1 | CC[C@@H](C)[C@H]1NC(=O)[C@@H](CCC(N)=O)NC(=O)[C@H](N)CSSC[C@H](C(N)=O)NC(=O)[C@@H](CC(C)C)NC(=O)[C@@H](CC(=O)O)NC(=O)[C@H]2CCCN2C(=O)[C@@H](CCCCN)NC(=O)[C@@H](CCC(N)=O)NC(=O)[C@@H](CCCCN)NC(=O)[C@@H](Cc2c[nH]c3ccccc23)NC1=O (H-[dC][dQ][dI][dW][dK][dQ][dK][dP][dD][dL][dC]-NH2; disulfide 1-11) | >100 | prevented | No clinically significant changes | 4 | lowest detectable levels of antigen specific antibody | did not result in lethality | within four hours | – | – | –
2 | CC[C@H](C)[C@H](NC(=O)[C@H](C)NC(=O)[C@H](CC(=O)O)NC(=O)[C@@H]1CCCN1C(=O)[C@H](CCC(N)=O)NC(=O)[C@H](C)N)C(=O)N[C@@H](CC(N)=O)C(=O)N[C@@H](C)C(=O)N1CCC[C@H]1C(=O)N[C@H](C(=O)N[C@H](C(=O)N[C@@H](CS)C(=O)N[C@@H](CS)C(=O)O)[C@@H](C)O)C(C)C [Peptide 1] (H-AQPDAINAPVTCC-OH; N-terminus and C-terminus assumed) | – | – | – | – | – | – | – | n.s. | n.s. | n.s.
